# Results as given in patent US20070087988A1, “Hematopoietic progenitor kinase 1 for modulation of an immune response” (New York University, priority 2005, published 2007).
# Legend:
# HPK1 [1] = experiment: HPK1 immune complex in vitro kinase (IVK) assay, endogenous HPK1 from treated Jurkat cells; type: cell-based, human; conditions: Jurkat cells, 10 pM PGE2
# murine HPK1 = experiment: IVK assay of HA-tagged murine HPK1 (wild type and mutants) transfected into Jurkat cells; type: cell-based, mouse; conditions: Jurkat transfectants
# Text: The pcDNA3 vector containing mouse cDNA encoding the HA-tagged wild type murine HPK1 and a proline-rich-deleted construct were constructed by Dr. F. Kiefer (Liu et al., 2000, J. Immunol. 165:1417). QuickChange™ mutagenesis system was used to alter the wild type HPK1 construct to encode the desired point mutations (Stratagene, La Jolla, Calif.). Mutated constructs were sequenced to verify the presence of the desired mutation and for the absence of PCR-generated mutations.
# Jurkat T cells (1.5×10^7) were transfected as described in (Chang et al., 1998, Mol. Cell. Biol. 18:4986). Whole cell lysates derived from resting or stimulated transfectants were subjected to immunoprecipitations by the indicated antibodies, and were subjected to in vitro kinase reactions as described in (Kiefer et al., 1996, EMBO J. 15:7013 and (Sawasdikosol et al., 2003, Blood 101:3687). Anti-murine HPK1 #7 antibody was used to detect the ectopically expressed HPK wild type and mutant murine HPK1.
# To assess the role of the proline-rich motifs in PGE2-induced HPK1 activation, cells were transfected with constructs that encoded either the HA-tagged wild type HPK1 or a mutant form in which the P1, P2, and P4 proline-rich motifs (HA-ΔP-HPK1) were deleted (FIG. 8A). Transfectants were left untreated, stimulated by 10 pM of PGE2, or stimulated by TCR crosslinking. The ectopically expressed HPK1 proteins were subjected to anti-HA immunoprecipitation and were subjected to IVK assay. […] This limits the possibility that adapter proteins play a role in this process.
# To assess the importance of arginine 168, arginine 169 and serine 171 in PGE2-induced HPK1 activation, a panel of mutant HPK1 expression constructs that encode a point mutation at each of these amino acids was created. In these mutants, arginines were changed to lysines and serine was changed to alanine. These mutant HPK1 constructs were transfected into Jurkat cells and the ectopically expressed HA-tagged HPK1 were immunoprecipitated from resting or PGE2 stimulated cells.
# EP2 receptor = target: T1, EP2 receptor (Homo sapiens, UniProt P43116); experiment: IVK assay of HA-HPK1 from 293-EP2 transfectants; type: cell-based; conditions: PGE2 stimulation
# T1 construct: expressed in transfected cells; host or cells: HEK 293 (293-EP2), also transiently transfected with HA-HPK1
# T1 sequence (P43116 whole entry): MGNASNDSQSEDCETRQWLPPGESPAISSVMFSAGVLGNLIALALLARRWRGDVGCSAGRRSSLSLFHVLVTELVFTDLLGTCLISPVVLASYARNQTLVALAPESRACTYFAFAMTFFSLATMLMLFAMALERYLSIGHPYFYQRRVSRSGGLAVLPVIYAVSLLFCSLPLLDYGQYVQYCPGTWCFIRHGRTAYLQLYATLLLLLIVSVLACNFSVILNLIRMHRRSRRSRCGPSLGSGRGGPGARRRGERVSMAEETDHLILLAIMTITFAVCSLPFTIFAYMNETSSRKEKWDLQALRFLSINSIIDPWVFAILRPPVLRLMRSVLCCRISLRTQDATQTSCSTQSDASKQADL
# [2] = system: wild type HEK 293-EBNA cell line; experiment: IVK assay of HA-HPK1 from wild type HEK 293-EBNA cells (no EP2/EP4); type: cell-based, human; conditions: absence of EP2 and EP4 receptor, PGE2 stimulation
# HPK1 [3] = experiment: Western blot of immunoprecipitated HPK1 with anti-phosphorylated PKA substrate antibody; type: cell-based, human; conditions: Jurkat T cells stimulated with PGE2 for 10 min
# Experimental: The primary sequence of HPK1 was examined for the preferred PKA phosphorylation site on HPK1. Within the activation loop of HPK1, there exists a perfect PKA phosphorylation site at serine 171 (FIG. 12A). This serine is conserved in all members of the KHS subfamily of STE20 kinases. To determine whether PKA can directly phosphorylate HPK1 upon stimulation by PGE2, experiments were conducted using an anti-phospho PKA substrate antibody that recognizes the arginine-based motif that is present at sites that are phosphorylated by PKA (FIG. 12A).
# In these experiments, Jurkat T cells were stimulated with PGE2 for 10 min., lysed, and immunoprecipitated HPK1 was subjected to Western blot analysis using anti-phosphorylated PKA substrate antibody. […] Similarly, the antibody also recognized HPK1 immunoprecipitated from cells that were treated with anti-CD3 (FIG. 12B, lane 2).
# T cells = experiment: T cell proliferation on anti-CD3/anti-CD28 TCR crosslinking, 3H-thymidine; type: cell-based, mouse
# Experimental: Naïve T cells (2×10^5) were seeded onto a 96-well plate and incubated with 1 μg/ml anti-CD3 and anti-CD28 or 10 μg/ml ConA for three days in the presence or absence of 100 pM PGE2 and then pulsed with 1 μCi/well ^3H thymidine (MP Biomedicals, Irvine, Calif.) for 18 hours before harvesting.
# T cells were negatively selected using the Pan T cell isolation kit (Miltenyi Biotech Inc., Auburn, Calif.). […] 2×10^5 Naïve T cells were seeded on a 96-well plate and incubated with various dilutions of anti-CD3 and 1 μg/ml of anti-CD28 for 72 hours in the presence or absence of 1 nM PGE2 and then pulsed with 1 μCi/well ^3H thymidine (MP Biomedicals, Irvine, Calif.) for 18 hours before harvest.
# CD4+ T cells = experiment: Intracellular IL-2 staining of CD4+ T cells (FACS); type: cell-based, mouse
# Experimental: Purified naïve wild type and HPK1^−/− splenocytes were expanded with 10 μg/ml ConA for three days with or without 10 nM PGE2. 10^6 cells were seeded onto a 96-well plate and cells were either left unstimulated or were stimulated with 1 μg/ml anti-CD3 and anti-CD28 for 6 hours in the presence of GolgiStop™ (BD Pharmingen). Cells were washed with buffer containing 0.1% saponin and 0.1% BSA followed by incubation with anti-IL-2-PE for 30 min. IL-2 levels were read by flow cytometry using FACSCalibur™.
# RBC-lysed wild type and HPK1^−/− splenocytes were stimulated with or without 1 nM PGE2 and 2 μg/ml anti-CD3 plus 1 μg/ml anti-CD28 for 48 hours in the presence of GolgiStop™ (BD Pharmingen) for the last five hours of culture. For profiling experiments, RBC-lysed splenocytes were stimulated with anti-CD3 and anti-CD28 for 24 hours, and GolgiStop was added in the last five hours. Cells were then fixed with 2% paraformaldehyde followed by permeabilization with a buffer containing 0.1% saponin and 0.1% BSA and the different conjugated antibodies for 30 min. Cytokine levels were read by flow cytometry using FACSCalibur™ and analyzed using Flowjo software.
# EP4 receptor = EP4 receptor (Homo sapiens, UniProt P35408); experiment: IVK assay of HA-HPK1 from 293-EP4 transfectants; conditions: PGE2 stimulation
# EP4 receptor, sequence (P35408 whole entry): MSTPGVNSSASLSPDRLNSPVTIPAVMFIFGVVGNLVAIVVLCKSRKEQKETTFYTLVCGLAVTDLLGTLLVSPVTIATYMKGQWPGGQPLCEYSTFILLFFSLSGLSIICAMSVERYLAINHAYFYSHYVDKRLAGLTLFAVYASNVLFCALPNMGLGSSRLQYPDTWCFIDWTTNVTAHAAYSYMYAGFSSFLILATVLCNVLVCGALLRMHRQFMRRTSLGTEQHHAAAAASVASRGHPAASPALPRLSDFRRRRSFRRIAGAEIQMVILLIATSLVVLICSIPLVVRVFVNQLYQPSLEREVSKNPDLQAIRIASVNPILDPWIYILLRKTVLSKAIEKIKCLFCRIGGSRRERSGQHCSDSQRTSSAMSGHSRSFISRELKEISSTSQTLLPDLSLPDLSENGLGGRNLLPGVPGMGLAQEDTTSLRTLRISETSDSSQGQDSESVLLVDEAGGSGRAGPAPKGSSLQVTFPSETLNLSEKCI
# [4] = Example 4, 100 pM PGE2, three days
# [5] = Example 4, 10 nM PGE2, restimulated anti-CD3/anti-CD28
smiles,measurement,setting,value
"CCCCC[C@H](O)/C=C/[C@H]1[C@H](O)CC(=O)[C@@H]1C/C=C\CCCC(=O)O [PGE2, prostaglandin E2]",HPK1 catalytic activity (IVK),HPK1 [1],activate the catalytic activity of HPK1
same,kinase response of HA-HPK1 (wild type),murine HPK1; 10 pM PGE2,responded competently
same,kinase response of HPK1 proline-rich deleted mutant (HA-ΔP-HPK1),murine HPK1; 10 pM PGE2,responded to PGE2 stimulation
same,kinase response of HPK1 serine 171 to alanine mutant to PGE2,murine HPK1; PGE2 stimulated,ablated the response
same,"reduction of responsiveness to PGE2 stimulation, HPK1 arginine to lysine mutation at residue 168 or 169",murine HPK1; PGE2 stimulated,approximately 90%
same,"HPK1 kinase activity (IVK), 293-EP2 transfectants",EP2 receptor,responded robustly
same,"HPK1 kinase activity (IVK), wild type HEK 293-EBNA",[2],failed to respond
same,recognition of HPK1 by anti-phosphorylated PKA substrate antibody,HPK1 [3],recognized the phosphorylated HPK1
same,"inhibition of proliferation, HPK1−/− T cells, anti-CD3/anti-CD28",T cells; [4],18%
same,"inhibition of proliferation, wild type T cells, anti-CD3/anti-CD28",T cells; [4],~80%
same,"inhibition of proliferation, HPK1−/− T cells, TCR cross-linking","T cells; Example 8, 1 nM PGE2, 72 hours",~20%
same,"inhibition of proliferation, wild type T cells, TCR cross-linking","T cells; Example 8, 1 nM PGE2, 72 hours",~80%
same,CD4+ HPK1−/− cells still producing IL-2 after PGE2 addition,CD4+ T cells; [5],over 45%
same,wild type cells producing IL-2 after PGE2 addition,CD4+ T cells; [5],less than 10%
same,CD4+ HPK1−/− T cells still producing IL-2 after co-culture with PGE2,"CD4+ T cells; Example 7, 1 nM PGE2, 48 hours",over 22%
same,wild type cells producing IL-2 after co-culture with PGE2,"CD4+ T cells; Example 7, 1 nM PGE2, 48 hours",< 5%
same,"HPK1 kinase activity (IVK), 293-EP4 transfectants",EP4 receptor,responded robustly
